# Reference: patent US11000571B2 (priority 2016, dated 2021)
# Where two headings read alike, the source gives them in different places.
# How the values were obtained:
# [1] = test system: cultured neurons and astrocytes; settings: cited from earlier work
# [2] = test system: intracerebral hemorrhage (“ICH”) mouse model; set-up: species or system C57BL/6J mice; settings: in vivo
# [3] = test system: MMP-9 (metalloproteinase-9); set-up: species or system C57BL/6J mice; settings: mouse, in vivo
Substance,kill of cultured neurons and astrocytes [1],behavioral and neurological deficits following induction of ICH (overall) [2],circling behavior [2],sensory response component of 28-point scale [2],neurofunction (pilot studies) ([2]; 16 mg/kg),sensory response component of 28-point scale ([2]; 16 mg/kg),sensory response component of 28-point scale ([2]; 32 mg/kg),MMP9 serum levels [3]
Hemin,60%-70%,,,,,,,
PHGGGWGQPHGGGWGQ [SEQ ID NO:3],,efficacious at diminishing the behavioral and neurological deficits,exception,improved at statistically significant levels,improved neurofunction,improved at statistically significant levels,improved at statistically significant levels,diminished
